Assays:
[1] = tested on: ATP-induced paw edema; assay: ATP-induced paw edema in mice; assay type: in vivo, mouse; details: 9f 0.001–1 mg/kg intraperitoneally 1 h before ATP, edema measured after 30 min
Experimental: (§1) Our protocols using Swiss Webster mice 4–5 weeks old adhered to the Ethical Principles in Animal Experimentation adopted by the Brazilian College of Animal Experimentation and approved by the FIOCRUZ Research Ethics Committee (Faria et al., [2018]) (number LW-5814). Mouse paw edema was stimulated with carrageenan (300 μg/paw) saline suspension for 60 min or ATP (10 mg/paw) for 30 min. Treatment with diclofenac (100 μg/kg), oxidized ATP (100 μg/kg), and analog 9f (0.001–1 mg/kg) was intraperitoneally administered 60 min prior to the […] administration of carrageenan or ATP. A plethysmometer (UGO Basil, Italy) was used to measure the edema before inductor injection, and the relative paw edema increased after carrageenan or ATP action.

[2] = tested on: carrageenan-induced paw edema; assay: Carrageenan-induced paw edema in mice; assay type: in vivo, mouse; details: 9f 0.001–1 mg/kg intraperitoneally 1 h before carrageenan, edema measured after 60 min
Experimental: as §1

[3] = molecular target: T1, P2X7R (Mus musculus, UniProt Q9Z1M0); assay: Whole-cell patch clamp, ATP-induced ionic currents in peritoneal macrophages; assay type: cell-based; details: fixed 500 nM 9f; ATP 100 μM to 25 mM; whole-cell configuration
T1 construct: plated for 24 h before dye uptake assays, whole-cell patch clamp experiments, and IL-1β release assays; endogenous in cells; host or cells: mouse (Swiss Webster) peritoneal macrophages
T1 sequence (Q9Z1M0 1-595): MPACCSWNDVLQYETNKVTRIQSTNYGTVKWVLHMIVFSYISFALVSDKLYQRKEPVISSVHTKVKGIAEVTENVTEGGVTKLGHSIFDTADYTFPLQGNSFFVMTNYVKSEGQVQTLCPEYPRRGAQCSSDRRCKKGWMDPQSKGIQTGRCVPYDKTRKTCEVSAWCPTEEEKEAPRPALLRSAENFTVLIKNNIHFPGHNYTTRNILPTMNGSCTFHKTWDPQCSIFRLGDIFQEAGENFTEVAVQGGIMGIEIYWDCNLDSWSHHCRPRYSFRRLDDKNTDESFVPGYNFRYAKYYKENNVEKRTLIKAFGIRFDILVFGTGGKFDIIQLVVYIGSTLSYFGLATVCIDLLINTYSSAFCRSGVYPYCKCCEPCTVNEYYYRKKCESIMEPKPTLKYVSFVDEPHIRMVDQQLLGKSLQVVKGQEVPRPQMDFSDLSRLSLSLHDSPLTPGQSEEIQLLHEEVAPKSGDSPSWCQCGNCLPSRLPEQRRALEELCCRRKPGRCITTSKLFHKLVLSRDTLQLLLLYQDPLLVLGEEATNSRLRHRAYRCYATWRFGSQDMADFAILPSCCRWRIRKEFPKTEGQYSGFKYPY
Experimental: The whole-cell configuration was used in peritoneal macrophages as previously described (Faria et al., [2005]). All the experiments used bath and pipette solutions with a series resistance set as 6–11 MΩ. Ionic currents with amplitudes < 1,500 pA were not compensated; however, ionic currents above this level were compensated by 88%. The cell capacitance for peritoneal macrophages was (19 ± 1 pF; n = 86), and the recordings were obtained at a holding potential of −60 mV at 37°C.
The saline composition was as follows (in mM): 150 NaCl, 5 KCl, 1 MgCl2, 1 CaCl2, and 10 HEPES (pH 7.4) for the bath solution and 150 KCl, 5 NaCl, 1 MgCl2, 10 HEPES, and 0.1 EGTA (pH 7.4) for the pipette solution (Faria et al., [2018]).
[…] A perfusion chamber (RC-24 chamber, Warner Instrument Corp) operating at a rate of 1 ml/min was used in all experiments (Faria et al., [2018]).

[4] = tested on: P2X3R; assay: α,β-meATP-induced [Ca2+]i shift; assay type: cell-based; details: 100 μM
Experimental: (§2) Mouse peritoneal macrophages, PC12 cells, J774 cells, and HEPG2 cells were analyzed by fluorescence microscopy to measure the intracellular Ca^2+ concentrations ([Ca^2+]i). Cells were incubated with 2 μM Fura-2-AM (Molecular Probes) for 30 min, and the [Ca^2+]i mobilization was measured in the F340/F380 ratios with a FlexStation 3 multimode microplate reader (Molecular Devices). Cells were plated in translucent 96-well plates (BD Falcon) for 15 min and then washed and incubated in a saline solution with 150 NaCl, 5 KCl, 1 MgCl2, 1 CaCl2, and 10 HEPES (pH 7.4) for 30 min before measurements of [Ca^2+]i. The Ca^2+ influx was induced by stimulating cells with P2 receptor agonists. P2 receptor antagonists were added 10 min before P2 receptor agonist addition. […] Ionomycin was considered a positive control, and the other recordings were normalized in relation to the AUC.

[5] = molecular target: T2, P2X1R (Mus musculus, UniProt P51576); assay: β,γ-meATP-induced intracellular Ca2+ mobilization in J774 cells; assay type: cell-based; details: 100 μM
T2 construct: endogenous in cells; host or cells: J774 cells
T2 sequence (P51576 1-399): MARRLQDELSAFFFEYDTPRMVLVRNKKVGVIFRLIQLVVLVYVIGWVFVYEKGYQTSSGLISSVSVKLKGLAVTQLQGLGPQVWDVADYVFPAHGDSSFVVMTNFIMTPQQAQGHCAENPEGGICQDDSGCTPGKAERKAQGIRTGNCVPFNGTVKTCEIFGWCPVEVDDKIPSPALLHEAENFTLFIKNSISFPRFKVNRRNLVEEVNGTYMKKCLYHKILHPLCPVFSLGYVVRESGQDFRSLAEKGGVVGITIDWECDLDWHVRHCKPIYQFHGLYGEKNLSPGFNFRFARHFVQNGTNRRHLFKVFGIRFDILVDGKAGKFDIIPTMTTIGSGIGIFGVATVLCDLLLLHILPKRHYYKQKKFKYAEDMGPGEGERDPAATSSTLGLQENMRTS
Experimental: as §2

SMILES: CCOC(=O)c1cnn(-c2nnc(-c3ccccc3Cl)s2)c1N [Compound 9f]
- ATP-induced paw edema [1]: dose-dependently decreased
- Carrageenan-induced paw edema [2]: dose-dependently decreased
- EC50 of the ATP dose–response curve with fixed inhibitor vs ATP alone [3]: higher
- Effect on activity of P2X3R agonist α,β-meATP [4]: did not reduce
- Effect on β,γ-meATP-induced intracellular Ca2+ mobilization [5]: did not reduce
